Data: patent US20170143712A1, “Methods of Treating Cancers, Immune and Autoimmune Diseases, and Inflammatory Diseases Based on BTK Occupancy and BTK Resynthesis Rate” (Acerta Pharma B.V., priority 2014, published 2017)

How the values were obtained:
[1] = system: MDA-MB-231 tumor cells; experiment: Osteolytic bone lesions after intratibial MDA-MB-231 tumor inoculation in nude rats; assay type: in vivo, rat; design: mean visual lysis score: scale not given here; mean left tibial density: unit not given here; details: zoledronate group (Group 2)
Experimental: FIG. 40A, FIG. 40B, FIG. 40C, FIG. 40D, FIG. 40E, FIG. 40F, and FIG. 40G illustrate the bone density in hind limbs of nude rats (n=6 per group) implanted with intratibial MDA-MB231 tumor […] and treated for up to 41 days with vehicle control, zoledronate (active control) or varying doses of Formula (II). Oral gavage administration of Formula (II) was scheduled as 3 days of initial QD dosing, followed by 30 days of BID dosing at the following dose levels: 3/3, 30/30, and 180/90 mg/kg/day. An untreated group of rats, without tibial implants (n=3) represents bone density of concurrently obtained normal rat tibial images. Statistical significance was determined by two-way ANOVA-Dunnett: ns=not significant, *=P<0.05, **=P<0.01, ***=P<0.001, versus Group 1.
Rats were inoculated with MDA-MB-231 tumor cells on Day 1, baseline radiographs were taken on Day 2, and treatment with Formula (II) began on Day 8. Radiographs were taken on Days 10, 17, 24, 31, 38, and 41. Anti-osteolytic activities were determined from differences in bone density and visual lysis scores between the drug-treated and vehicle-treated groups on each observation day, and also from changes in bone density and visual lysis scores in tumor-inoculated left tibias at baseline (Day 2) compared to Days 10, 17, 24,31, 38, and 41.
Radiographs were blinded for both analyses. […] Visual osteolysis was not detected in any rat in the nave group. The 4% increase in mean bone density from baseline to study end presumably reflected normal growth in these rats.

[2] = system: BCR signaling through BTK; experiment: Anti-IgM induced CD86 and CD69 on splenocyte B cells of CIA mice; assay type: in vivo, mouse; details: splenocytes 3 hr after last dosing on day 14
Experimental: (§1) FIG. 45 illustrates changes in a functional measure of BCR signalling through the CD86 marker. Mouse splenocytes were isolated from spleens from mice that were part of the mouse CIA study semi-therapeutic protocol, 3 hr after the last dosing on day 14 of the treatment and cryopreserved. After thawing, inhibition of anti-IgM-induced PD markers CD86 and CD69 on mouse splenocyte B cells were measured. Error bars represent the standard deviation for the 3 sets of splenocytes analyzed.
as §1, with “FIG. 46” for “FIG. 45”, “the CD69” for “the CD86”
Inhibition of the BCR signaling through BTK was evaluated by ex vivo stimulation of splenocytes using IgM and evaluation of CD86 and CD69 as functional responses of BCR stimulation.

[3] = system: established type II collagen-induced arthritis (CIA) in DBA/1 mice; experiment: 14-day mouse established type II collagen-induced arthritis (CIA), PO QD (Example 10); assay type: in vivo; details: for arthritis scores measured daily vs vehicle controls / disease-induced body weight loss (percent change from baseline) vs vehicle controls: p<0.05 on the days printed; for AUC (All Paws) - Corrected for Initial Score / Change in Body Weight (g) / Histopathology Summed Score Knees / Histopathology Summed Score Paws / Histopathology Summed Score Six-Joints / Paw Score AUC (All Paws): mean(SE); for spleen weights compared to vehicle controls: all dose groups PO QD
Experimental: Prior to dosing, the candidate anti-inflammatory agents were reconstituted either by vortexing or stirring. The candidate anti-inflammatory agents were administered to the DBA/1 mice daily (QD) by the oral (PO) route.
Immunization with heterologous type II collagen (CII) induces arthritis in mice of the DBA/1 strain, which is genetically susceptible to this disease. To develop an experimental model of autoimmunity more adequate for the study of human rheumatoid arthritis (RA), male DBA/1 mice were injected intradermally (ID) with bovine type II collagen to induce arthritis as reported by Trentham et al (Trentham D E, Townes A S, Kang A H Autoimmunity to type II collagen: an experimental model of arthritis. J. Exper. Med. 1977, 146:857-868) and Bendele A (Bendele A, Animal models of rheumatoid arthritis. J. Musculoskelet. Neuronal Interact. 2001, 1(4):377-85). Male DBA/1 mice (n=114) that were 6-7 weeks old and weighed approximately 18-27 grams (mean 22 g) at enrollment (arthritis day 1) were obtained from Taconic Farms, Inc. The male DBA/1 mice were at least 6 weeks old at time of first immunization and were housed 3-5/cage in shoe-box polycarbonate cages with wire tops, wood chip bedding, and suspended food and water bottles. These animals were identified by a distinct number of ink marks at the base of the tail delineating animal number. After enrollment, all cages were labeled with protocol number, group number, and animal numbers.
The male DBA/1 (n=10/group for arthritis) were anaesthetized with Isoflurane, shaved at the base of the tail, and injected intradermally with 150 μL of Freund's Complete Adjuvant (Difco, Detroit, Mich.) containing bovine type II collagen (BBP, batch #7) (1 mg/ml) at the base of the tail on day 0 and again on day 21. […] Randomization was done after swelling was obviously established in at least one paw (score of 1) and attempts were made to ensure approximately equal mean scores of 0.5-1 across groups at the time of enrollment. […] The male DBA/1 mice were terminated on arthritis day 14 (3 hours post-dose).
Efficacy evaluation of the administered anti-inflammatory agents was based on animal body weights, clinical arthritis scores, arthritis scores expressed as area under the curve (AUC), and histopathology on fore paws, hind paws, and knees. Histopathology results were expressed as 4 paws, knees only, or 6 joints (knees included). Day 13 was used as the endpoint for analysis of body weight change since the male DBA/1 mice were fasted overnight prior to necropsy on day 14.

[4] = 5 mg/kg PO QD, prophylactic paws
[5] = 5 mg/kg PO QD, prophylactic paws only
[6] = 5 mg/kg PO QD, therapeutic paws only

Compound | BCR-mediated signaling (anti-IgM induced CD86 and CD69) [2] | six-joint histopathology, reduction of summed scores vs vehicle controls ([3]; 5 mg/kg PO QD) | Clinical arthritis scores AUC, reduction vs vehicle controls ([3]; 5 mg/kg PO QD, all paws) | Clinical arthritis scores AUC, reduction when corrected for initial enrollment score ([3]; 5 mg/kg PO QD, all paws) | arthritis scores measured daily vs vehicle controls ([3]; 5 mg/kg PO QD, all paws) | AUC (All Paws) - Corrected for Initial Score ([3]; 5 mg/kg PO QD) | Change in Body Weight (g) ([3]; 5 mg/kg PO QD) | Histopathology Summed Score Knees ([3]; 5 mg/kg PO QD) | Histopathology Summed Score Paws ([3]; 5 mg/kg PO QD) | Histopathology Summed Score Six-Joints ([3]; 5 mg/kg PO QD) | Paw Score AUC (All Paws) ([3]; 5 mg/kg PO QD) | disease-induced body weight loss (percent change from baseline) vs vehicle controls ([3]; 5 mg/kg PO QD) | daily arthritis scores vs vehicle controls [3, 4] | Clinical arthritis scores AUC, reduction vs vehicle controls [3, 5] | spleen weights compared to vehicle controls [3] | further results
O=P(O)(O)C(O)(Cn1ccnc1)P(=O)(O)O [zoledronate, reference compound] | – | – | – | – | – | – | – | – | – | – | – | – | – | – | – | mean left tibial density ([1]; Day 2 baseline): 200.0±1.6; increase in mean left tibial density ([1]; Day 2 to Days 31 and 41): 4-6%; mean left tibial density ([1]; Day 31): 207.8±1.6; mean left tibial density ([1]; Day 41): 211.2±1.6; mean visual lysis score ([1]; Days 31 and 41 each): 0.7
CC#CC(=O)N1CC[C@@H](n2c(=O)n(-c3ccc(Oc4ccccc4)cc3)c3c(N)ncnc32)C1 [Formula (XXI), 6-amino-9-[(3R)-1-(2-butynoyl)-3-pyrrolidinyl]-7-(4-phenoxyphenyl)-7,9-dihydro-8H-purin-8-one] | dose-responsive decreases in BCR-mediated signaling | 85% | 86% | 104% | significantly reduced toward normal | *−1.33(1.48) | *0.89(0.71) g | *3.48(1.17) | *1.46(0.47) | *2.13(0.66) | *5.83(1.53) | significantly inhibited toward normal | significantly reduced toward normal | 100% | not significantly affected | six-joint histopathology, reduction of summed scores vs vehicle controls ([3]; 1 mg/kg PO QD): 73%; total body weight loss from enrollment to study termination ([3]; 1 mg/kg PO QD): significantly inhibited; Clinical arthritis scores AUC, reduction vs vehicle controls ([3]; 1 mg/kg PO QD, all paws): 65%; Clinical arthritis scores AUC, reduction when corrected for initial enrollment score ([3]; 1 mg/kg PO QD, all paws): 79%; arthritis scores measured daily vs vehicle controls ([3]; 1 mg/kg PO QD, all paws): significantly reduced toward normal; AUC (All Paws) - Corrected for Initial Score ([3]; 1 mg/kg PO QD): 7.28(3.26); Change in Body Weight (g) ([3]; 1 mg/kg PO QD): *0.33(0.82) g; Histopathology Summed Score Knees ([3]; 1 mg/kg PO QD): *3.45(1.22); Histopathology Summed Score Paws ([3]; 1 mg/kg PO QD): *4.14(1.27); Histopathology Summed Score Six-Joints ([3]; 1 mg/kg PO QD): *3.91(1.13); Paw Score AUC (All Paws) ([3]; 1 mg/kg PO QD): *14.43(4.11); disease-induced body weight loss (percent change from baseline) vs vehicle controls ([3]; 1 mg/kg PO QD): significantly inhibited toward normal; daily arthritis scores vs vehicle controls ([3]; 1 mg/kg PO QD, prophylactic paws): significantly reduced toward normal; Clinical arthritis scores AUC, reduction vs vehicle controls ([3]; 1 mg/kg PO QD, prophylactic paws only): 99%; total body weight loss from enrollment to study termination ([3]; 5 mg/kg PO QD): significantly inhibited; daily arthritis scores vs vehicle controls ([3]; 5 mg/kg PO QD, therapeutic paws): significantly reduced toward normal; Clinical arthritis scores AUC, reduction vs vehicle controls [3, 6]: 66%; Clinical arthritis scores AUC, reduction when corrected for initial enrollment score [3, 6]: 113%
CC#CC(=O)N1CCOC[C@H]1c1nc(-c2ccc(C(=O)Nc3ccccn3)cc2)c2c(N)nccn12 [(R)-4-(8-amino-3-(4-(but-2-ynoyl)morpholin-3-yl)imidazo[1,5-a]pyrazin-1-yl)-N-(pyridin-2-yl)benzamide] | dose-responsive decreases in BCR-mediated signaling | 75% | 74% | 90% | significantly reduced toward normal | *3.43(2.22) | −0.04(0.92) g | *2.65(0.79) | 4.24(1.07) | *3.71(0.87) | *10.58(2.95) | significantly inhibited toward normal | significantly reduced toward normal | 95% | not significantly affected | –
